Measurements as given in the NIST ThermoML archive (doi:10.1016/j.fluid.2013.05.001).
Where “and” joins values, the source holds several entries; their conditions need not be identical. Equal entries are not always repeated.

Legend:
[1] = mn = molality of the nth substance listed, in mol/kg; details: 85.9 kPa, Liquid, Vibrating tube method
[2] = refractive index (Na D-line) (dimensionless); details: 298.15 K; 85.9 kPa; Liquid; Standard Abbe refractometry
[3] = 298.15 K, 85.9 kPa, Liquid; for viscosity: Capillary tube (Ostwald / Ubbelohde) method; for mass density: Vibrating tube method

CC(=O)Nc1ccc(OC(=O)c2ccccc2O)cc1 [salophen] + C1CCOC1
mass density, [1]
Details | m1 = 0.0103 | m1 = 0.0316 | m1 = 0.0496 | m1 = 0.0699 | m1 = 0.0908 | m1 = 0.1099 | m1 = 0.1293 | m1 = 0.1498 | m1 = 0.1704
288.15 K | 893.79 kg/m3 and 882.94 kg/m3 | 884.82 kg/m3 and 895.65 kg/m3 | 886.39 kg/m3 and 897.21 kg/m3 | 888.13 kg/m3 and 898.95 kg/m3 | 889.9 kg/m3 and 900.71 kg/m3 | 891.51 kg/m3 and 902.31 kg/m3 | 893.11 kg/m3 and 903.88 kg/m3 | 894.79 kg/m3 and 905.55 kg/m3 | 896.46 kg/m3 and 907.21 kg/m3
308.15 K | 871.92 kg/m3 | 873.82 kg/m3 | 875.41 kg/m3 | 877.17 kg/m3 | 878.97 kg/m3 | 880.59 kg/m3 | 882.21 kg/m3 | 883.9 kg/m3 | 885.6 kg/m3
318.15 K | 860.78 kg/m3 | 862.7 kg/m3 | 864.3 kg/m3 | 866.08 kg/m3 | 867.89 kg/m3 | 869.54 kg/m3 | 871.17 kg/m3 | 872.89 kg/m3 | 874.58 kg/m3

CC(=O)Nc1ccc(OC(=O)c2ccccc2O)cc1 [salophen] + CC(=O)N(C)C
mass density, [1]
Details | m1 = 0.0106 | m1 = 0.0323 | m1 = 0.0497 | m1 = 0.0704 | m1 = 0.0899 | m1 = 0.1092 | m1 = 0.129 | m1 = 0.1492 | m1 = 0.1742
288.15 K | 946.52 kg/m3 and 937.32 kg/m3 | 938.87 kg/m3 and 948.07 kg/m3 | 940.11 kg/m3 and 949.32 kg/m3 | 941.6 kg/m3 and 950.78 kg/m3 | 942.99 kg/m3 and 952.18 kg/m3 | 944.36 kg/m3 and 953.53 kg/m3 | 945.78 kg/m3 and 954.93 kg/m3 | 947.22 kg/m3 and 956.35 kg/m3 | 949.07 kg/m3 and 958.13 kg/m3
308.15 K | 928.08 kg/m3 | 929.62 kg/m3 | 930.86 kg/m3 | 932.36 kg/m3 | 933.77 kg/m3 | 935.17 kg/m3 | 936.59 kg/m3 | 938.07 kg/m3 | 939.94 kg/m3
318.15 K | 918.85 kg/m3 | 920.4 kg/m3 | 921.65 kg/m3 | 923.15 kg/m3 | 924.58 kg/m3 | 925.99 kg/m3 | 927.42 kg/m3 | 928.91 kg/m3 | 930.75 kg/m3

C[S+](C)[O-] [dimethyl sulfoxide]
Details | mass density [kg/m3] | refractive index | viscosity [mPa·s]
[2] | – | 1.4762 | –
[3] | 1095.29 | – | 1.867

C1COCCO1 [1,4-dioxane]
Details | mass density [kg/m3] | refractive index | viscosity [mPa·s]
[2] | – | 1.4188 | –
[3] | 1027.93 | – | 1.158

CC(=O)Nc1ccc(OC(=O)c2ccccc2O)cc1 [salophen] + C1COCCO1
mass density, [1]
Details | m1 = 0.0106 | m1 = 0.0284 | m1 = 0.0495 | m1 = 0.0693 | m1 = 0.0855 | m1 = 0.1104 | m1 = 0.1313 | m1 = 0.1482 | m1 = 0.1707
288.15 K | 1039.84 kg/m3 and 1028.52 kg/m3 | 1029.51 kg/m3 and 1040.81 kg/m3 | 1030.66 kg/m3 and 1041.93 kg/m3 | 1031.72 kg/m3 and 1042.96 kg/m3 | 1032.57 kg/m3 and 1043.79 kg/m3 | 1033.86 kg/m3 and 1045.04 kg/m3 | 1034.92 kg/m3 and 1046.05 kg/m3 | 1035.78 kg/m3 and 1046.86 kg/m3 | 1036.89 kg/m3 and 1047.91 kg/m3
308.15 K | 1017.22 kg/m3 | 1018.23 kg/m3 | 1019.39 kg/m3 | 1020.48 kg/m3 | 1021.35 kg/m3 | 1022.68 kg/m3 | 1023.75 kg/m3 | 1024.62 kg/m3 | 1025.75 kg/m3
318.15 K | 1005.88 kg/m3 | 1006.9 kg/m3 | 1008.09 kg/m3 | 1009.19 kg/m3 | 1010.08 kg/m3 | 1011.41 kg/m3 | 1012.5 kg/m3 | 1013.37 kg/m3 | 1014.52 kg/m3

C1CCOC1 [tetrahydrofuran]
Details | mass density [kg/m3] | refractive index | viscosity [mPa·s]
[2] | – | 1.4047 | –
[3] | 882.02 | – | 0.448

CC(=O)Nc1ccc(OC(=O)c2ccccc2O)cc1 [salophen] + C[S+](C)[O-]
mass density, [1]
Details | m1 = 0.0099 | m1 = 0.0307 | m1 = 0.0493 | m1 = 0.07 | m1 = 0.0911 | m1 = 0.1086 | m1 = 0.1311 | m1 = 0.1483 | m1 = 0.1717
288.15 K | 1105.64 kg/m3 and 1095.61 kg/m3 | 1096.3 kg/m3 and 1106.33 kg/m3 | 1096.92 kg/m3 and 1106.94 kg/m3 | 1097.62 kg/m3 and 1107.62 kg/m3 | 1098.35 kg/m3 and 1108.33 kg/m3 | 1098.97 kg/m3 and 1108.91 kg/m3 | 1099.71 kg/m3 and 1109.66 kg/m3 | 1100.31 kg/m3 and 1110.22 kg/m3 | 1101.12 kg/m3 and 1111 kg/m3
308.15 K | 1085.58 kg/m3 | 1086.29 kg/m3 | 1086.93 kg/m3 | 1087.63 kg/m3 | 1088.38 kg/m3 | 1089 kg/m3 | 1089.77 kg/m3 | 1090.36 kg/m3 | 1091.18 kg/m3
318.15 K | 1075.56 kg/m3 | 1076.29 kg/m3 | 1076.95 kg/m3 | 1077.68 kg/m3 | 1078.44 kg/m3 | 1079.07 kg/m3 | 1079.87 kg/m3 | 1080.47 kg/m3 | 1081.32 kg/m3

CC(=O)N(C)C [N,N-dimethylethanamide]
Details | mass density [kg/m3] | refractive index | viscosity [mPa·s]
[2] | – | 1.436 | –
[3] | 936.57 | – | 0.961
